Data set [1] concerns the target T1, phospho-MET (Y1234/1235) (Homo sapiens, UniProt P08581, DEL964-1010).
T1 construct: Western blots performed on lysates from in vitro cultured cells confirm a strong band corresponding to MET protein; host or cells: Hs746t
Briefly: Western blotting of phospho-MET in Hs746t cells. Particulars: Hs746t cells (MET exon 14 skipping), 2 hours incubation, Western blot. It counts as cell-based. As for the experimental part:
(§1) Hs746t cells are obtained from ATCC® (Manassas, Va.) and are maintained in DMEM Medium with L-glutamine and 10% fetal bovine serum (FBS). MKN45 cells, expressing wild-type MET, are obtained from JCRB Cell Bank (Japan) and are maintained in RPMI 1640 Medium with L-glutamine, 10% FBS, and sodium pyruvate. Cells are grown at 37° C. with 5% CO2. Cells are seeded into 6-well plates, 1 million cells/well, and incubated overnight. Cells are incubated with merestinib for 2 hours, then are lysed in radioimmunoprecipitation assay (RIPA) buffer containing protease inhibitors. Protein concentrations of cell lysates are measured with the DC™ Protein Assay (BioRad), following manufacturer directions. Lysates are electrophoresed on Novex® 4-20% Tris Glycine gels (Invitrogen), and are transferred onto polyvinylidene difluoride (PVDF) membranes. The blots are probed for total MET (clone D1C2, CELL SIGNALING TECHNOLOGY®, Cat #8198), phospho-MET (Y1234/1235, clone D26, CELL SIGNALING TECHNOLOGY®, Cat #3077), and phospho-MET (Y1003, clone 13D11, CELL SIGNALING TECHNOLOGY®, Cat #3135). Monoclonal Anti-β-Actin (clone AC-15, SIGMA-ALDRICH®, Cat #A5441) is used as a loading control. After incubating with horseradish peroxidase (HRP)-linked secondary antibodies, blots are developed with chemiluminescent substrate and imaged on a Lumi-Imager (Roche).

A short description of data set [2]: Body weight and health in Hs746t xenograft study. It counts as in vivo, mouse. Particulars: groups treated with merestinib (6 or 12 mg/kg). The method, then: (§2) Female athymic nude mice (Envigo) are used for this study. Food and water are available ad libitum. Animals are acclimated for 1 week prior to any experimental manipulation. The study is performed in accordance with AAALAC accredited institutional guidelines.
Hs746t cells are expanded in culture, harvested, and washed in Hank's Balanced Salt Solution (HBSS, GIBCO®). Approximately 5×10^6 cells in HBSS are implanted subcutaneously into the hind flank of the animal. When tumors reach an average size of 150 to 200 mm^3, the animals are randomized into groups of 7. Merestinib is prepared and administered via oral gavage at 6 or 12 mg/kg doses on a once daily schedule for 21 days.
Tumor volumes and body weight are measured bi-weekly. Statistical analysis is performed when 3 of the 7 vehicle treated animals hed been removed from the study due to tumor burden. Tumor volume is transformed to the log scale to equalize variance across time and treatment groups. The log volume data are analyzed with a two-way repeated measures analysis of variance by time and treatment using the MIXED procedures in SAS software (Version 9.3). The correlation model for the repeated measures is spatial power. Treated groups are compared to the control group at each time point. The MIXED procedure is also used separately for each treatment group to calculate adjusted means and standard errors at each time point. […]

In data set [3] the target is T2, phospho-MET (Y1234/1235) (Homo sapiens, UniProt P08581).
T2 construct: MKN45 cells, expressing wild-type MET; host or cells: MKN45
Kind of data set: Western blotting of phospho-MET in MKN45 cells. The conditions noted are these: MKN45 cells (wild-type MET), 2 hours incubation, Western blot. In kind it is cell-based. As for the experimental part:
as §1

The next data set has as its system Hs746t cells. Briefly: Cell proliferation assay (CELL TITER-GLO). In kind it is cell-based. Particulars: Homo sapiens, 120 h, 5 days exposure, n=2, read-out: IC50 in vitro Hs746t cell proliferation. The method, then: Hs746t cells are seeded onto poly-D-lysine, 96-well plates, 3000 cells/well and allowed to attach overnight in a 37° C. with 5% CO2 incubator. Merestinib is serially diluted 1:3 and added to the cells in triplicate. After 120 hours, cell viability is measured with the CELL TITER-GLO® Luminescent Cell Viability Assay (Promega), following manufacturer directions. The data are analyzed with GraphPad Prism v6 software. The assay is performed in duplicate experiments.

The test system of the next data set is Hs746t-derived xenograft. Kind of data set: In vivo Hs746t xenograft model. Set-up: species or system mouse. As for the experimental part: as §2
Merestinib is formulated as a solution in 10% PEG 400/90% (20% Captisol in water). Solution is freshly prepared every 7 days.
Hs746t cells are expanded in culture, harvested, and washed in Hank's Balanced Salt Solution (HBSS, GIBCO®). Approximately 5×10^6 cells in HBSS are implanted subcutaneously into the hind flank of the animal. When tumors reach an average size of 150 to 200 mm^3, the animals are randomized into groups of 7. […]
Animals are sacrificed using CO2 and cervical dislocation when tumors grew larger than 2000 mm^3.
Tumor volumes and body weight are measured bi-weekly. Statistical analysis is performed when 3 of the 7 vehicle treated animals hed been removed from the study due to tumor burden. Tumor volume is transformed to the log scale to equalize variance across time and treatment groups. The log volume data are analyzed with a two-way repeated measures analysis of variance by time and treatment using the MIXED procedures in SAS software (Version 9.3). The correlation model for the repeated measures is spatial power. Treated groups are compared to the control group at each time point. The MIXED procedure is also used separately for each treatment group to calculate adjusted means and standard errors at each time point. Both analyses account for the autocorrelation within each animal and the loss of data that occurs when animals are removed or lost before the end of the study. The adjusted means and standard errors are plotted for each treatment group versus time.
Measure tumor growth with calipers. Calculate tumor volumes by the formula Volume (mm^3)=L×W^2 (π/6) where L represents the larger diameter and W the smaller diameter. Calculate T/C % using the formula T/C %=100×ΔT/ΔC. Where ΔT=mean tumor volume of the drug-treated group on the final day of the study−mean tumor volume of the drug-treated group on the initial day of the dosing and ΔC=mean tumor volume of the control group on the final day of the study−mean tumor volume of the control group on the initial day of the dosing. Calculate changes in body weight by the formula (Weight on observation day−Weight on day 12)/Weight on Day 12×100.

`Cc1ccc(C(=O)Nc2ccc(Oc3cc4cnn(C)c4cc3-c3cn[nH]c3)c(F)c2)c(=O)n1-c1ccc(F)cc1` [merestinib, N-(3-Fluoro-4-(1-methyl-6-(1H-pyrazol-4-yl)-1H-indazol-5-yloxy)phenyl)-1-(4-fluorophenyl)-6-methyl-2-oxo-1,2-dihydropyridine-3-carboxamide]: the “phosphorylated MET at the Y1234/1235 position” value on phospho-MET (Y1234/1235) [1] and on phospho-MET (Y1234/1235) [3] was “inhibited” throughout. In data set [2], the “health issues in the animals” value is “no noticeable health issues”. Also, the IC50 in the data set with Hs746t cells worked out at 33.4 nM. Also, in the data set on Hs746t-derived xenograft (6 mg/kg oral gavage once daily, end of study), the “tumors showing signs of regrowth (2 consecutively larger tumor volume measurements)” value is given as 5 of the 7. The “anti-tumor activity T/C” value with Hs746t-derived xenograft (6 mg/kg oral gavage once daily, end of study, p=0.033 vs vehicle) is 18.3%. The same compound registered a tumor regression with Hs746t-derived xenograft (12 mg/kg oral gavage once daily, to the end of the study) of 91.8%. Moreover, in the data set on Hs746t-derived xenograft (12 mg/kg, 5 weeks after treatment terminated), the “tumor re-growth after treatment is terminated” value is recorded as “no tumor re-growth was observed”. Moreover, the “animals that are complete responders” value with Hs746t-derived xenograft (12 mg/kg, 64 days of dosing) is listed as 6 of the 7. Moreover, in the data set with Hs746t-derived xenograft (12 mg/kg, within 2 months of treatment), the “tumor re-growth during treatment (treatment resistance)” value was “No tumor re-growth is observed”.

For the origin of these results see patent US20210145811A1, “TREATMENT OF CANCER WITH EXON 14 SKIPPING MUTATION(S) OR EXON 14 SKIPPING PHENOTYPE” (Eli Lilly and Company, priority 2016, published 2021).
